Source: US12428406B2 (PMV Pharmaceuticals, Inc., priority 2019, dated 2025)

target: T1, p53 Y220C (Homo sapiens, UniProt P04637, Y220C); assay: In vitro DNA binding activity assay (HTRF / TR-FRET): stabilization of p53 Y220C and increase of its DNA binding activity; type: biochemical; conditions: recombinant His-tagged p53 Y220C DNA binding domain (aa 94-312), biotin-labeled consensus DNA, incubated at 27° C. or 29° C. for 60 min
T1 construct: The recombinant protein was a truncation mutant containing only amino acids 94-312 of p53; made in house; host or cells: E. coli
Method in brief: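 Stabilization of the mutant is inferred from increased binding of His-tagged p53 Y220C to a biotin-labeled consensus DNA, detected by HTRF with europium-streptavidin and APC-anti-His antibody. The concentration giving a 50% rise over compound-free binding is reported as SC150.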

T1 sequence (P04637 94-312, change not shown): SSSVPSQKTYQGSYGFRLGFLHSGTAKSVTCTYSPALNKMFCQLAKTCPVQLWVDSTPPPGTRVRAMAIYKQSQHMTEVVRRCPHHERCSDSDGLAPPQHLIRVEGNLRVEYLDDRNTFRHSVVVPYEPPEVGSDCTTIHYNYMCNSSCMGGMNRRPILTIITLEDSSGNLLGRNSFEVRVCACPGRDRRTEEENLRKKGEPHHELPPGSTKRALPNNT

SMILES | SC150 (concentration of the compound required to increase the DNA binding activity by 50%)
COc1cc(C(N)=O)ccc1NCC#Cc1cc2c(NC(=O)NC3CCN(C)CC3)cccc2n1CC(F)(F)F [Compound 7A, 3-methoxy-4-{[3-(4-{[(1-methylpiperidin-4-yl)carbamoyl]amino}-1-(2,2,2-trifluoroethyl)-1H-indol-2-yl)prop-2-yn-1-yl]amino}benzamide] | ++++ (++++ = 0.2 μM ≤ SC150 < 1 μM)
CN(C)[C@H]1CC[C@@H](Nc2cccc3c2cc(C#CCNc2ccc(S(C)(=O)=O)cc2O)n3CC(F)(F)F)CC1 [Compound 79A, 5-methanesulfonyl-2-{[3-(4-{[(1R,4R)-4-(dimethylamino)cyclohexyl]amino}-1-(2,2,2-trifluoroethyl)-1H-indol-2-yl)prop-2-yn-1-yl]amino}phenol] | + (+ = 0 μM ≤ SC150 < 0.05 μM)
COc1cc(S(C)(=O)=O)ccc1NCC#Cc1cc2c(NC3CCN(C4COC4)CC3)cccc2n1CC(F)(F)F [Compound 678A, 2-{3-[(4-methanesulfonyl-2-methoxyphenyl)amino]prop-1-yn-1-yl}-N-[1-(oxetan-3-yl)piperidin-4-yl]-1-(2,2,2-trifluoroethyl)-1H-indol-4-amine] | + (+ = 0 μM ≤ SC150 < 0.05 μM)
COC(=O)c1ccc(NCC#Cc2cc3c(N[C@@H]4CCN(CC(N)=O)C[C@@H]4F)cccc3n2CC(F)(F)F)c(OC)c1 [Compound 901A, methyl 4-{[3-(4-{[(3S,4R)-1-(carbamoylmethyl)-3-fluoropiperidin-4-yl]amino}-1-(2,2,2-trifluoroethyl)-1H-indol-2-yl)prop-2-yn-1-yl]amino}-3-methoxybenzoate] | + (+ = 0 μM ≤ SC150 < 0.05 μM)
COc1cc(S(C)(=O)=O)c(F)cc1NCC#Cc1cc2c(NC3CCN(C)CC3)cccc2n1CC(F)(F)F [Compound 522A, 2-{3-[(5-fluoro-4-methanesulfonyl-2-methoxyphenyl)amino]prop-1-yn-1-yl}-N-(1-methylpiperidin-4-yl)-1-(2,2,2-trifluoroethyl)-1H-indol-4-amine] | + (+ = 0 μM ≤ SC150 < 0.05 μM)
COc1cc(S(C)(=O)=O)ccc1NCC#Cc1cc2c(N[C@@H]3CC[C@H](N(C)C)C[C@H]3F)cccc2n1CC(F)(F)F [Compound 938A] | + (+ = 0 μM ≤ SC150 < 0.05 μM)
CNS(=O)(=O)c1ccc(NCC#Cc2cc3c(N[C@H]4CC[C@H](N5CC6(COC6)C5)CC4)cccc3n2CC(F)(F)F)c(OC)c1 [Compound 263A, 4-((3-(4-(((1R,4R)-4-(2-oxa-6-azaspiro[3.3]heptan-6-yl)cyclo-hexyl)amino)-1-(2,2,2-trifluoroethyl)-1H-indol-2-yl)prop-2-yn-1-yl)amino)-3-methoxy-N-methylbenzene-sulfonamide] | + (+ = 0 μM ≤ SC150 < 0.05 μM)
CNC(=O)c1ccc(NCC#Cc2cc3c(N[C@H]4CCN(C)C[C@H]4F)cccc3n2CC(F)(F)F)c(OC)c1 [Compound 805A, 4-{[3-(4-{[(3R,4S)-3-fluoro-1-methylpiperidin-4-yl]amino}-1-(2,2,2-trifluoroethyl)-1H-indol-2-yl)prop-2-yn-1-yl]amino}-3-methoxy-N-methylbenzamide] | + (+ = 0 μM ≤ SC150 < 0.05 μM)
COCC(CN1CCC(Nc2cccc3c2cc(C#CCNc2ccc(S(N)(=O)=O)cc2OC)n3CC(F)(F)F)CC1)OC(C)=O (centres unmarked) [Compound 619A, 1-methoxy-3-{4-[(2-{3-[(2-methoxy-4-sulfamoylphenyl)amino]prop-1-yn-1-yl}-1-(2,2,2-trifluoroethyl)-1H-indol-4-yl)amino]piperidin-1-yl}propan-2-yl acetate] | + (+ = 0 μM ≤ SC150 < 0.05 μM)
COc1cc(C(=O)O)ccc1NCC#Cc1cc2c(N[C@H]3CCNC[C@H]3F)cccc2n1CC(F)(F)F [Compound 852A] | + (+ = 0 μM ≤ SC150 < 0.05 μM)
COc1cc(C(N)=O)c(F)cc1NCC#Cc1cc2c(NC3CCN(C)CC3)cccc2n1CC(F)(F)F [Compound 514A, 2-fluoro-5-methoxy-4-[(3-{4-[(1-methylpiperidin-4-yl)amino]-1-(2,2,2-trifluoroethyl)-1H-indol-2-yl}prop-2-yn-1-yl)amino]benzamide] | + (+ = 0 μM ≤ SC150 < 0.05 μM)
COCC(O)CN1CCC(Nc2cccc3c2cc(C#CCNc2ccc(S(=O)(=O)NC(C)=O)cc2OC)n3CC(F)(F)F)CC1 (centres unmarked) [Compound 606A, N-(4-{[3-(4-{[1-(2-hydroxy-3-methoxypropyl)pipcridin-4-yl]amino}-1-(2,2,2-trifluoroethyl)-1H-indol-2-yl)prop-2-yn-1-yl]amino}-3-methoxybenzenesulfonyl) acetamide] | + (+ = 0 μM ≤ SC150 < 0.05 μM)
CNC(=O)c1ccc(NCC#Cc2cc3c(N[C@H]4CC[C@@H](NC)CC4)cccc3n2CC(F)(F)F)c(OC)c1 [Compound 110A, 3-methoxy-N-methyl-4-{[3-(4-{[(1S,4S)-4-(methylamino)cyclohexyl]amino}-1-(2,2,2-trifluoro-ethyl)-1H-indol-2-yl)prop-2-yn-1-yl]amino}benzamide] | + (+ = 0 μM ≤ SC150 < 0.05 μM)
CCOc1cc(S(C)(=O)=O)ccc1NCC#Cc1cc2c(N[C@H]3CC[C@H](N(C)C)CC3)cccc2n1CC(F)(F)F [Compound 95A, (1R,4R)—N^4-(2-{3-[(2-ethoxy-4-methanesulfonylphenyl)amino]prop-1-yn-1-yl}-1-(2,2,2-trifluoroethyl)-1H-indol-4-yl)-N^1,N^1-dimethylcyclohexane-1,4-diamine] | + (+ = 0 μM ≤ SC150 < 0.05 μM)
CNC(=O)c1ccc(NCC#Cc2cc3c(N[C@H]4CC[C@H](N5CC6COCC6C5)CC4)cccc3n2CC(F)(F)F)c(OC)c1 (stereo partly drawn) [Compound 434A, 3-methoxy-N-methyl-4-{[3-(4-{[(1R,4R)-4-{hexahydro-1H-furo[3,4-c]pyrrol-5-yl}cyclohexyl]amino}-1-(2,2,2-trifluoroethyl)-1H-indol-2-yl)prop-2-yn-1-yl]amino}benzamide] | + (+ = 0 μM ≤ SC150 < 0.05 μM)
COc1cc(S(C)(=O)=O)ccc1NCC#Cc1cc2c(NC3CCN(C(C)C)CC3)cccc2n1CC(F)(F)F [Compound 542A, 2-{3-[(4-methanesulfonyl-2-methoxyphenyl)amino]prop-1-yn-1-yl}-N-[1-(propan-2-yl)piperidin-4-yl]-1-(2,2,2-trifluoroethyl)-1H-indol-4-amine] | + (+ = 0 μM ≤ SC150 < 0.05 μM)
CNC(=O)c1ccc(NCC#Cc2cc3c(N[C@H]4CC[C@@H](N(C)C)CC4)cccc3n2CC(F)(F)F)c(OCCF)c1 [Compound 105A, 3-(2-fluoroethoxy)-N-methyl-4-{[3-(4-{[(1S,4S)-4-(dimethyl-amino)cyclohexyl]amino}-1-(2,2,2-trifluoro-ethyl)-1H-indol-2-yl)prop-2-yn-1-yl]amino}benzamide] | + (+ = 0 μM ≤ SC150 < 0.05 μM)
CCS(=O)(=O)c1ccc(NCC#Cc2cc3c(N[C@H]4CC[C@H](N5CC6(CCOCC6)C5)CC4)cccc3n2CC(F)(F)F)c(OC)c1 [Compound 314A, 2-(3-{[4-(ethanesulfonyl)-2-methoxyphenyl]amino}prop-1-yn-1-yl)-N-[(1R,4R)-4-{7-oxa-2-azaspiro[3.5]nonan-2-yl}cyclohexyl]-1-(2,2,2-trifluoroethyl)-1H-indol-4-amine] | + (+ = 0 μM ≤ SC150 < 0.05 μM)
COc1cc(S(C)(=O)=O)ccc1NCC#Cc1cc2c(N[C@H]3CC[C@H](N4CCC(S(C)(=O)=O)CC4)CC3)cccc2n1CC(F)(F)F [Compound 442A, 2-{3-[(4-methane-sulfonyl-2-methoxy-phenyl)amino]prop-1-yn-1-yl}-N-[(1R,4R)-4-(4-methanesulfonylpiperidin-1-yl)cyclohexyl]-1-(2,2,2-trifluoroethyl)-1H-indol-4-amine] | + (+ = 0 μM ≤ SC150 < 0.05 μM)
CC(O)CN1CCC(Nc2cccc3c2cc(C#CCNc2ccc(S(C)(=O)=O)cc2OCC#N)n3CC(F)(F)F)CC1 (centres unmarked) [Compound 661A, 2-(2-{[3-(4-{[1-(2-hydroxypropyl)piperidin-4-yl]amino}-1-(2,2,2-trifluoroethyl)-1H-indol-2-yl)prop-2-yn-1-yl]amino}-5-methanesulfonylphenoxy)acetonitrile] | + (+ = 0 μM ≤ SC150 < 0.05 μM)
COc1cc(C(=O)O)ccc1NCC#Cc1cc2c(N[C@H]3CCN(CC(N)=O)C[C@H]3F)cccc2n1CC(F)(F)F [Compound 925A] | + (+ = 0 μM ≤ SC150 < 0.05 μM)
COc1cc(S(=O)(=O)O)ccc1NCC#Cc1cc2c(N[C@@H]3CCN(C)C[C@@H]3F)cccc2n1CC(F)(F)F [Compound 931A, 4-{[3-(4-{[(3S,4R)-3-fluoro-1-methylpiperidin-4-yl]amino}-1-(2,2,2-trifluoroethyl)-1H-indol-2-yl)prop-2-yn-1-yl]amino}-3-methoxybenzene-1-sulfonic acid] | + (+ = 0 μM ≤ SC150 < 0.05 μM)
COc1cc(S(C)(=O)=O)ccc1NCC#Cc1cc2c(NC3CCN(C[C@H](CO)OC)CC3)cccc2n1CC(F)(F)F [Compound 629A, (2R)-3-{4-[(2-{3-[(4-methanesulfonyl-2-methoxyphenyl)amino]prop-1-yn-1-yl}-1-(2,2,2-trifluoroethyl)-1H-indol-4-yl)amino]piperidin-1-yl}-2-methoxypropan-1-ol] | + (+ = 0 μM ≤ SC150 < 0.05 μM)
